Test results published in PubChem BioAssay (NCI).
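Values below derive from 48-hour exposures of cells grown in 96-well plates, with endpoints linearly interpolated between the two concentrations bracketing the appropriate inhibition level. At the GI50, growth is halved. TGI marks complete inhibition of growth.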

How the values were obtained:
Experiment in all cases: NCI tumour cell line growth inhibition, 48 h
[1] = tested on: U251 CNS
[2] = tested on: OVCAR-3 ovarian
[3] = tested on: CCRF-CEM leukemia
[4] = tested on: HCT-116 colon
[5] = tested on: RXF 393 renal
[6] = tested on: DU-145 prostate
[7] = tested on: MDA-MB-435
[8] = tested on: K-562 leukemia
[9] = tested on: SK-OV-3 ovarian
[10] = tested on: OVCAR-5 ovarian
[11] = tested on: NCI/ADR-RES ovarian
[12] = tested on: UACC-257 melanoma
[13] = tested on: NCI-H23 lung
[14] = tested on: HOP-62 NSCLC
[15] = tested on: MDA-MB-231 breast
[16] = tested on: UACC-62 melanoma
[17] = tested on: COLO 205 colon
[18] = tested on: HT29 colon
[19] = tested on: A549 NSCLC
[20] = tested on: HS 578T breast
[21] = tested on: BT-549 breast
[22] = tested on: SF-268 CNS
[23] = tested on: SR leukemia
[24] = tested on: NCI-H460 lung
[25] = tested on: MOLT-4 leukemia
[26] = tested on: SN12C renal
[27] = tested on: RPMI-8226 leukemia
[28] = tested on: SK-MEL-2 melanoma
[29] = tested on: EKVX NSCLC
[30] = tested on: NCI-H522 lung
[31] = tested on: SK-MEL-5 melanoma
[32] = tested on: HCT-15 colon
[33] = tested on: T-47D breast
[34] = tested on: 786-0 renal
[35] = tested on: MCF7 breast
[36] = tested on: A498 renal
[37] = tested on: NCI-H226 lung
[38] = tested on: IGROV1 ovarian
[39] = tested on: KM12 colon
[40] = tested on: HCC-2998 colon
[41] = tested on: HOP-92 NSCLC
[42] = tested on: UO-31 renal
[43] = tested on: SF-539 CNS
[44] = tested on: LOX IMVI melanoma
[45] = tested on: ACHN renal
[46] = tested on: SF-295 CNS
[47] = tested on: SK-MEL-28 melanoma
[48] = tested on: HL-60(TB) leukemia
[49] = tested on: OVCAR-8 ovarian
[50] = tested on: MALME-3M melanoma
[51] = tested on: PC-3 prostate
[52] = tested on: CAKI-1 renal
[53] = tested on: OVCAR-4 ovarian
[54] = tested on: M14 melanoma
[55] = tested on: SNB-75 CNS
[56] = tested on: SNB-19 CNS
[57] = tested on: SW-620 colon
[58] = tested on: TK-10 renal

Compound `CC(=O)OCC(=O)[C@@]1(O)[C@H](C)C[C@H]2[C@@H]3C=C(C)C4=Cc5c(cnn5-c5ccc(F)cc5)C[C@]4(C)[C@H]3[C@@H](O)C[C@@]21C` has a GI50 [1] of 1250 nM, a TGI [1] of 3270 nM and a GI50 [2] of 1780 nM. The TGI [2] was 3840 nM, the GI50 [3] was less than 15.8 nM and the GI50 [4] was 1660 nM. The TGI [4] was 3500 nM, the GI50 [5] was 709 nM and the TGI [5] was 2350 nM. For the same compound, the GI50 [6] was 2030 nM, the TGI [6] was 5170 nM and the GI50 [7] was 2350 nM. For the same compound, the TGI [7] was 7020 nM, the GI50 [8] was 1150 nM and the TGI [8] was greater than 23200 nM. It also gave a GI50 [9] of 1290 nM, a TGI [9] of 4570 nM and a GI50 [10] of 1410 nM. It also gave a TGI [10] of 4570 nM, a GI50 [11] of 1900 nM and a TGI [11] of 6820 nM. The GI50 [12] was 2760 nM, the TGI [12] was 8540 nM and the GI50 [13] was 2080 nM. For the same compound, the TGI [13] was 5800 nM, the GI50 [14] was 1280 nM and the TGI [14] was 3070 nM. For the same compound, the GI50 [15] was 2560 nM, the TGI [15] was 6430 nM and the GI50 [16] was 1730 nM. The TGI [16] was 3780 nM, the GI50 [17] was 1740 nM and the TGI [17] was 3340 nM. For the same compound, the GI50 [18] was 1320 nM, the TGI [18] was 3070 nM and the GI50 [19] was 1450 nM. The TGI [19] was 9960 nM, the GI50 [20] was 1330 nM and the TGI [20] was 4050 nM. The GI50 [21] was 1770 nM, the TGI [21] was 4780 nM and the GI50 [22] was 2480 nM. The TGI [22] was 8390 nM, the GI50 [23] was 2350 nM and the TGI [23] was 7930 nM. For the same compound, the GI50 [24] was 1470 nM, the TGI [24] was 3160 nM and the GI50 [25] was 1940 nM. The TGI [25] was 6760 nM, the GI50 [26] was 1890 nM and the TGI [26] was 7080 nM. It also gave a GI50 [27] of 161 nM, a TGI [27] of 1140 nM and a GI50 [28] of 2140 nM. The TGI [28] was 6360 nM, the GI50 [29] was 1880 nM and the TGI [29] was 10400 nM. The GI50 [30] was 1840 nM, the TGI [30] was 3820 nM and the GI50 [31] was 1260 nM. For the same compound, the TGI [31] was 2530 nM, the GI50 [32] was 1450 nM and the TGI [32] was 3630 nM. The GI50 [33] was 2750 nM, the TGI [33] was 8720 nM and the GI50 [34] was 1060 nM. It also gave a TGI [34] of 2550 nM, a GI50 [35] of 1890 nM and a TGI [35] of 6240 nM. For the same compound, the GI50 [36] was 1480 nM, the TGI [36] was 3150 nM and the GI50 [37] was 2230 nM. For the same compound, the TGI [37] was 9080 nM, the GI50 [38] was 2850 nM and the TGI [38] was 12800 nM. The GI50 [39] was 1440 nM, the TGI [39] was 2940 nM and the GI50 [40] was 1880 nM. It also gave a TGI [40] of 3770 nM, a TGI [41] of 5870 nM and a GI50 [42] of 4310 nM. For the same compound, the TGI [42] was 15600 nM, the GI50 [43] was 473 nM and the TGI [43] was 2350 nM. The GI50 [44] was 1660 nM, the TGI [44] was 3800 nM and the GI50 [45] was 2500 nM. The TGI [45] was 9970 nM, the GI50 [46] was 982 nM and the TGI [46] was 5130 nM. It also gave a GI50 [47] of 1330 nM, a TGI [47] of 2810 nM and a GI50 [48] of 4100 nM. For the same compound, the TGI [48] was 9020 nM, the GI50 [49] was 2580 nM and the TGI [49] was 11300 nM. The GI50 [50] was 2360 nM, the TGI [50] was 8980 nM and the GI50 [51] was 1800 nM. For the same compound, the TGI [51] was 5060 nM, the GI50 [52] was 2570 nM and the TGI [52] was 10000 nM. For the same compound, the GI50 [53] was 2120 nM, the TGI [53] was 11500 nM and the GI50 [54] was 1710 nM. The TGI [54] was 3500 nM, the GI50 [55] was 1190 nM and the TGI [55] was 4140 nM. For the same compound, the GI50 [56] was 2030 nM, the TGI [56] was 6270 nM and the GI50 [57] was 1800 nM. The TGI [57] was 3410 nM, the GI50 [58] was 1910 nM and the TGI [58] was 6030 nM.
